The text below walks through data of PubChem BioAssay AID743355 (Broad Institute, 2014).

SMILES strings stand for the structures. Calls of active or inactive are those of the source.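 The calls were made as follows: active = signal drop with a fitted AC50 at or under twice the sample's highest valid dose; inconclusive = flat fit with signal down 30 to 70%, or poor fit; inactive = the rest, including signal rising.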

Test system in the first test: not listed separately
The test is described as follows: A549 cell cytotoxicity, dose response, cytotoxicity control, luminescence, dry powder, set 9 (AID 743355). The conditions noted are these: A549 viability, CellTiter-Glo ATP luminescence, 72 h; at 12 µM (top of the series). (In ATP-based viability assays light output follows the ATP content of the culture.)
As for `N#Cc1ccc(N2CCN(C(=O)c3ccc4c(c3)OCO4)CC2)cc1`, the normalized CellTiter-Glo signal change (more negative = more cytotoxic) was -5.47% (inactive).

The same test, now with this note: A549 viability, CellTiter-Glo ATP luminescence, 72 h; at 26 µM (top of the series).
For `COc1ccc(C(=O)N2CCN(c3ccc(C(C)=O)cc3)CC2)cc1OC`, the normalized CellTiter-Glo signal change (more negative = more cytotoxic) is 51.5% (inactive).

On to `O=C(c1ccc2c(c1)OCO2)N1CCN(c2ccc(OC(F)(F)F)cc2)CC1`, for which the normalized CellTiter-Glo signal change (more negative = more cytotoxic) was 6.83% (inactive).

With `CC(=O)c1ccc(N2CCN(C(=O)c3ccc4c(c3)OC(F)(F)O4)CC2)cc1`, the normalized CellTiter-Glo signal change (more negative = more cytotoxic) is -2.42% (inactive).

Regarding `CC(=O)c1ccc(N2CCN(C(=O)c3ccc4c(c3)OC(C)(C)O4)CC2)cc1`, the normalized CellTiter-Glo signal change (more negative = more cytotoxic) was 5.78% (inactive).

Turning to `CC(=O)c1ccc(N2CCN(C(=O)c3cc4c(cc3Cl)OCO4)CC2)cc1`, the normalized CellTiter-Glo signal change (more negative = more cytotoxic) is 2.51% (inactive).

For the compound `O=C(c1ccc2c(c1)OCO2)N1CCN(c2ccc(S(=O)(=O)C(F)(F)F)cc2)CC1`, the normalized CellTiter-Glo signal change (more negative = more cytotoxic) is 21.5% (inactive).

Take `O=C(c1ccc2c(c1)OCO2)N1CCN(c2ccc(S(=O)(=O)C(F)F)cc2)CC1`: the normalized CellTiter-Glo signal change (more negative = more cytotoxic) was 17.7% (inactive).

Regarding `CC(=O)c1ccc(N2CCN(C(=O)c3ccc4c(c3C)OCO4)CC2)cc1`, the normalized CellTiter-Glo signal change (more negative = more cytotoxic) was -3.63% (inactive).

As for `CN(C)S(=O)(=O)c1ccc(N2CCN(C(=O)c3ccc4c(c3)OCO4)CC2)cc1`, the normalized CellTiter-Glo signal change (more negative = more cytotoxic) was -6.83% (inactive).

With `CC(=O)c1ccc(N2CCN(C(=O)c3ccc4c(c3)OCO4)CC2)cc1`, the normalized CellTiter-Glo signal change (more negative = more cytotoxic) is -7.97% (inactive).

`CC(=O)c1ccc(N2CCN(C(=O)c3cc(Cl)c4c(c3)OCO4)CC2)cc1`: the normalized CellTiter-Glo signal change (more negative = more cytotoxic) is 6.94% (inactive).

Consider `CC(=O)c1ccc(N2CCN(C(=O)c3cccc4c3OCO4)CC2)cc1`, for which the normalized CellTiter-Glo signal change (more negative = more cytotoxic) is 2.91% (inactive).

As for `CC(=O)c1ccc(N2CCN(C(=O)Nc3ccc4c(c3)OCO4)CC2)cc1`, the normalized CellTiter-Glo signal change (more negative = more cytotoxic) was -14.7% (inactive).

Regarding `CC(=O)c1ccc(N2CCN(C(=O)c3ccc(Cl)c(Cl)c3)CC2)cc1`, the normalized CellTiter-Glo signal change (more negative = more cytotoxic) was 5.05% (inactive).

Consider `O=C(c1ccc2c(c1)OCO2)N1CCN(c2ccc(C(F)(F)F)cc2)CC1`, for which the normalized CellTiter-Glo signal change (more negative = more cytotoxic) was 1.09% (inactive).

In the case of `CC(=O)c1ccc(N2CCN(S(=O)(=O)c3ccc4c(c3)OCO4)CC2)cc1`, the normalized CellTiter-Glo signal change (more negative = more cytotoxic) was -10.1% (inactive).

Turning to `CC(=O)c1ccc(N2CCN(C(=O)c3ccc4ocnc4c3)CC2)cc1`, the normalized CellTiter-Glo signal change (more negative = more cytotoxic) is 4.94% (inactive).

In the case of `CC(=O)c1ccc(N2CCCN(C(=O)c3ccc4c(c3)OCO4)CC2)cc1`, the normalized CellTiter-Glo signal change (more negative = more cytotoxic) is 9.8% (inactive).

With `CC(=O)c1ccc(N2CCN(C(=O)c3ccc4snnc4c3)CC2)cc1`, the normalized CellTiter-Glo signal change (more negative = more cytotoxic) was -3.89% (inactive).

Regarding `CS(=O)(=O)c1ccc(N2CCN(C(=O)c3ccc4c(c3)OCO4)CC2)cc1`, the normalized CellTiter-Glo signal change (more negative = more cytotoxic) is -1.14% (inactive).

As for `CC(=O)c1ccc(N2CC3CC2CN3C(=O)c2ccc3c(c2)OCO3)cc1` (stereo unspecified), the normalized CellTiter-Glo signal change (more negative = more cytotoxic) is -9.16% (inactive).

With `CC(=O)c1ccc(N2CCN(C(=O)c3cc4c(cn3)OCO4)CC2)cc1`, the normalized CellTiter-Glo signal change (more negative = more cytotoxic) is -11.9% (inactive).

Turning to `CC(=O)c1ccc(N2CCN(C(=O)c3cc4c(cc3C)OCO4)CC2)cc1`, the normalized CellTiter-Glo signal change (more negative = more cytotoxic) is 1.8% (inactive).

On to `COc1cc2c(cc1C(=O)N1CCN(c3ccc(C(C)=O)cc3)CC1)OCO2`, for which the normalized CellTiter-Glo signal change (more negative = more cytotoxic) is -2.21% (inactive).

The next test relates to A549 viability, CellTiter-Glo ATP luminescence, 72 h. Described as above.
Settings: not given
Broadly, the AC50 is the concentration giving half of the maximal activity seen. Take `COc1cc(C(=O)N2CCN(c3ccc(C(C)=O)cc3)CC2)cc2c1OCO2`: the AC50 is > 52 µM (inactive).
